{"source": "patent US6916823B2", "about": "“Method of treatment of dopamine-related dysfunction” (Purdue Research Foundation, priority 2001, dated 2005)", "key": {"[1]": {"test_system": "D1 and D2 dopamine receptors", "test": "D1:D2 selectivity", "assay_type": "binding"}, "unilateral 6-OHDA rats [2]": {"test_system": "unilateral 6-OHDA rats", "test": "rat unilateral 6-OHDA rotation model of Parkinson's disease", "assay_type": "in vivo", "conditions": "for increase in rotation relative to vehicle: 10 h; for rotation during continuous administration: osmotic minipump s.c.", "text": "Summary. In the rat unilateral 6-hydroxydopamine (6-OHDA) rotation model of Parkinson's disease, 6-OHDA is infused unilaterally into the medial forebrain bundle, the substantia nigra, or the striatum. […] When challenged with direct-acting dopamine receptor agonists, unilateral 6-OHDA rats turn contralaterally (away from the side of the lesion) because of the increased sensitivity of the postsynaptic dopamine receptors on the lesioned side. The experiments described below examine tolerance induced by the full D1 agonist, dinapsoline, using the 6-OHDA model.\nSubjects. Adult male Sprague-Dawley Rats (Hilltop Laboratories, Chatsworth, Calif.), weighing between 280 and 320 grams, were used as subjects. Animals were housed individually with food and water available ad libitum, except as noted below. The light:dark schedule was 12 h:12 h, and testing was performed during the light cycle. All methods adhere to the guidelines in the Guide for the Care and Use of Experimental Animals published by the National Institutes of Health (Pub. 85-23, 1985).\nSurgery. Rats were pretreated with 25 mg/kg desipramine (s.c.) approximately 30 minutes before surgery. Rats were anesthetized by inhalation of isoflurane (1.5 to 4.0%) and placed in a stereotaxic apparatus. An infusion cannula was placed in the medial forebrain bundle at the coordinates A.P. −3.8 mm, M.L. −1.5 mm, and D.V. −3.8 mm relative to bregma according to the atlas of Paxinos and Watson (1986). Ten micrograms of 6-OHDA (6-hydroxydopamine; Sigma Chemical Co., St. Louis, Mo.) in a volume of 4 μL was infused at a rate of 0.5 μL/min in a vehicle of 0.01% ascorbate. After a 14-day recovery period, rats were prescreened for rotation in response to d-amphetamine (5 mg/kg) and to apomorphine (0.3 mg/kg) 1 week later. Animals that responded to both d-amphetamine (>800 rotations in 3 h) and apomorphine (>100 rotations in 1 h) were retained for further study.\nTesting of compounds began on day 28 postsurgery in each case. A new group of 6-OHDA-lesioned rats was used for each new study. In some studies, rats were implanted with a subcutaneous 14-day osmotic minipump (model 2 ML2, Alza, Palo Alto, Calif.) with a flow rate of 5.0 μL/h. The rats were re-anesthetized with 1.5 to 4% isoflurane, a small incision was made on the back of the neck, and the minipump was placed subcutaneously in the cavity. The incision was closed with sterile wound clips. Before implantation, minipumps were incubated in sterile saline (37° C.) to ensure outflow at the time of implantation. The minipumps were used to administer dinapsoline, or vehicle (50% dimethyl sulfoxide (DMSO), 12.5% ascorbic acid).\nApparatus, Procedure, and Statistics. Rats were tested for rotation in automated rotation chambers (Rotoscan, Accuscan, Columbus, Ohio). The apparatus consisted of a cylindrical Plexiglas chamber 30 cm in diameter in which the animal is fitted to a harness attached to a flexible rod connected to a rotating microswitch. Animals were allowed to habituate to chambers for 30 minutes before drug treatment in each case. Data were collected for 1 to 12 h after injection, using 15 minute time bins. Treatments were compared using one-way and repeated measures of analysis of variance (ANOVA), as appropriate; post hoc analysis was performed with Dunnett's test.\nAcute Dinapsoline Administration. Beginning 1 week after the screening dose with apomorphine, subjects (n=12) were tested once per week with dinapsoline (0.02, 0.2, or 2 mg/kg) or vehicle (s.c.) using a counterbalanced design, and rotation behavior was monitored for 10 h. After the final day of testing, rats were euthanized and brains were removed for subsequent assessment of dopamine depletion. In the oral dosing experiments, a separate group of subjects (n=8) received dinapsoline (0.02, 0.2, or 2 mg/kg) or vehicle once per week using a counterbalanced design. Rats were fasted for 16 h before dosing with oral gavage, and rotation behavior was monitored for 10 h."}, "unilateral 6-OHDA rats [3]": {"test_system": "unilateral 6-OHDA rats", "conditions": "cited from earlier work; for efficacy in Parkinson's disease models: e.g. unilateral 6-OHDA-lesion rodent model"}, "[4]": {"conditions": "in vivo; cited from earlier work"}, "D1 receptors": {"molecular_target": "T1, D1 receptors (Rattus norvegicus, UniProt P18901)", "T1 construct": "increase cAMP production in rat striatum and C-6-mD1 cells; from tissue; host or cells: rat striatum (striatal membranes)", "T1 sequence (P18901 whole entry)": "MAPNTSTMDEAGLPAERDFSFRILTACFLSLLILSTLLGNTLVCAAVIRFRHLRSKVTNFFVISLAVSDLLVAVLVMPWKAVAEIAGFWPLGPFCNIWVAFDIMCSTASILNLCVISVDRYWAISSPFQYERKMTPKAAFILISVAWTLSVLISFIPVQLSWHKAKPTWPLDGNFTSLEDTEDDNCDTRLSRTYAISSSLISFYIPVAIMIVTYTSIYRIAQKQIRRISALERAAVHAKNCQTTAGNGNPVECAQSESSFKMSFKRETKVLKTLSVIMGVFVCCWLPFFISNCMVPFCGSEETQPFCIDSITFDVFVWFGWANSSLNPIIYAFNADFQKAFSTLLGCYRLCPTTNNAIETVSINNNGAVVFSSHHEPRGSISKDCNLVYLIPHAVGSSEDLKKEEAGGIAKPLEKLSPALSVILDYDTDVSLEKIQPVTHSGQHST", "test": "cAMP production in rat striatum", "assay_type": "biochemical", "conditions": "for agonist activity (intrinsic activity): rat striatum / rat striatal membranes, relative to dopamine"}, "[5]": {"molecular_target": "T2, cloned expressed primate D1A receptors (Macaca mulatta, UniProt O77680)", "T2 construct": "expressed in transfected cells; host or cells: C-6 cells (C-6-mD1)", "T2 sequence (O77680 whole entry)": "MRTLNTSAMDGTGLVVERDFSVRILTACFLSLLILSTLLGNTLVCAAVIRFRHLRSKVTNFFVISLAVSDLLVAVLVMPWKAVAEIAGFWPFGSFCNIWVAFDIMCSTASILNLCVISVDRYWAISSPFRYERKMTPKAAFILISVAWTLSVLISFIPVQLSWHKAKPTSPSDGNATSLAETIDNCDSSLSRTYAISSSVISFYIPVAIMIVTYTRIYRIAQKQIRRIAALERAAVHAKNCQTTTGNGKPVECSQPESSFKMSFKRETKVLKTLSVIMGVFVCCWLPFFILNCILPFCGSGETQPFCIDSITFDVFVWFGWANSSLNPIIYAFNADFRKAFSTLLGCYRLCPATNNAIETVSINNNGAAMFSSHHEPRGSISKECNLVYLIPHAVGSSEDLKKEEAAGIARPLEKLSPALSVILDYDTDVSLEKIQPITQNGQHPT", "test": "cAMP production in C-6-mD1 cells", "assay_type": "cell-based", "conditions": "for agonist activity (intrinsic activity): C-6-mD1 cells / cloned expressed primate D1A receptors, relative to dopamine"}, "D2 receptors": {"test_system": "D2 receptors", "test": "D2 agonist properties"}, "[6]": {"molecular_target": "T3, rat striatal D1 receptors (Rattus norvegicus, UniProt P18901)", "T3 construct": "increase cAMP production in rat striatum and C-6-mD1 cells; from tissue; host or cells: rat striatum (striatal membranes)", "T3 sequence (P18901 whole entry)": "as the sequence (P18901 whole entry) above", "test": "binding affinity to D1 receptors, competition with SCH23390", "text": "Experiments have been conducted to determine the binding affinity of dinoxyline to D1 receptors."}, "[7]": {"conditions": "A-77636 0.3 mg/kg s.c. alone, 3 h"}}, "note": "Like-named read-outs stand apart in the source and are kept apart here.", "data": [{"compound": "NC[C@@H]1O[C@H](C23CC4CC(CC(C4)C2)C3)Cc2c1ccc(O)c2O", "note": "[Compound A-77636, reference compound]", "values": [{"measurement": "D1:D2 selectivity", "setting": "[1]", "value": "more strongly D1 selective than dinapsoline"}, {"measurement": "duration of rotation", "setting": "unilateral 6-OHDA rats [2]; 1 mg/kg s.c.", "value": "approximately 18 h"}, {"measurement": "behavioral tolerance", "setting": "unilateral 6-OHDA rats [2]; 1 mg/kg s.c. once daily for 14 days, 3 h rotation", "value": "dramatic behavioral tolerance"}, {"measurement": "rotation on second day of dosing", "setting": "unilateral 6-OHDA rats [2]; 1 mg/kg s.c. once daily, day 2 vs day 1", "value": "significantly less rotation than on the first day"}, {"measurement": "amount of rotation on fourth day of dosing", "setting": "unilateral 6-OHDA rats [2]; 1 mg/kg s.c. once daily, day 4, complete tolerance", "value": "no greater than that seen with vehicle"}, {"measurement": "rotation in naive animals", "setting": "unilateral 6-OHDA rats [2]; 1 mg/kg s.c., first day", "value": "robust rotation"}, {"measurement": "tolerance on day 3 challenge", "setting": "unilateral 6-OHDA rats [2]; A-77636 0.3 mg/kg s.c. alone after 2 days A-77636 with or without quinpirole", "value": "equal tolerance in both groups"}, {"measurement": "rotational response day 1", "setting": "unilateral 6-OHDA rats [2]; [7]", "value": "maximal rotational response"}, {"measurement": "tolerance by day 2", "setting": "unilateral 6-OHDA rats [2]; [7]", "value": "significant tolerance"}, {"measurement": "duration of action", "setting": "unilateral 6-OHDA rats [3]; Asin and Wirtshafter, 1993", "value": 18, "unit": "h"}, {"measurement": "plasma half-life", "setting": "[4]", "value": "> 6", "unit": "h"}]}, {"compound": "CCN1CCC[C@H]1CNC(=O)c1c(O)c(Cl)cc(Cl)c1OC", "note": "[raclopride, reference compound]", "values": [{"measurement": "effect of daily coadministration on rotational response to dinapsoline", "setting": "unilateral 6-OHDA rats [2]; raclopride 2 mg/kg s.c. with dinapsoline 2 mg/kg s.c., days 1 through 6", "value": "no significant difference"}, {"measurement": "effect of antagonist pretreatment on rotational response to dinapsoline", "setting": "unilateral 6-OHDA rats [2]; raclopride 2 mg/kg s.c., dinapsoline 0.2 mg/kg s.c., 3 h", "value": "did not reduce"}, {"measurement": "effect of antagonist pretreatment on rotational response to dinapsoline", "setting": "unilateral 6-OHDA rats [2]; raclopride 2 mg/kg s.c., dinapsoline 2 mg/kg s.c., 3 h", "value": "did not reduce"}, {"measurement": "effect on rotation produced by quinpirole", "setting": "unilateral 6-OHDA rats [2]; raclopride 2 mg/kg s.c., quinpirole 0.25 mg/kg s.c., data not shown", "value": "blocked completely"}]}, {"compound": "Oc1cc2c(cc1O)[C@H]1c3ccccc3CN[C@@H]1CC2", "note": "(stereo in doubt) [dihydrexidine, (+)-trans-10,11-dihydroxy-5,6,6a,7,8,12b-hexahydrobenzo[a]phenanthridine]", "values": [{"measurement": "agonist activity (intrinsic activity)", "setting": "D1 receptors", "value": "full agonist"}, {"measurement": "agonist activity (intrinsic activity)", "setting": "[5]", "value": "full agonist"}, {"measurement": "D1:D2 selectivity", "setting": "[1]", "value": "ten-fold"}, {"measurement": "D2 agonist properties", "setting": "D2 receptors", "value": "some D2 agonist properties"}, {"measurement": "efficacy in Parkinson's disease models", "setting": "unilateral 6-OHDA rats [3]", "value": "efficacious"}]}, {"compound": "Oc1ccc2c(c1O)Cc1cccc3c1[C@H]2CNC3", "note": "[dinapsoline]", "values": [{"measurement": "D1:D2 selectivity", "setting": "[1]", "value": "five-fold"}, {"measurement": "increase in rotation relative to vehicle", "setting": "unilateral 6-OHDA rats [2]; 0.02 mg/kg s.c.", "value": "but not at 0.02 mg/kg"}, {"measurement": "duration of rotation", "setting": "unilateral 6-OHDA rats [2]; 0.2 mg/kg s.c.", "value": "about 5 h"}, {"measurement": "increase in rotation relative to vehicle", "setting": "unilateral 6-OHDA rats [2]; 0.2 mg/kg s.c.", "value": "Statistically significant increases"}, {"measurement": "duration of rotation", "setting": "unilateral 6-OHDA rats [2]; 2 mg/kg oral", "value": 7, "unit": "h"}, {"measurement": "increase in rotation versus baseline", "setting": "unilateral 6-OHDA rats [2]; 2 mg/kg oral", "value": "significantly different from baseline"}, {"measurement": "change in rotational response over time", "setting": "unilateral 6-OHDA rats [2]; 2 mg/kg s.c. once daily, 14 days", "value": "significant increase in response over time"}, {"measurement": "behavioral tolerance", "setting": "unilateral 6-OHDA rats [2]; 2 mg/kg s.c. once or twice daily, 14 days", "value": "no evidence for behavioral tolerance"}, {"measurement": "change in rotational response over time", "setting": "unilateral 6-OHDA rats [2]; 2 mg/kg s.c. twice daily, 14 days", "value": "significant increase in response over time"}, {"measurement": "increase in rotation relative to vehicle", "setting": "unilateral 6-OHDA rats [2]; 2.0 mg/kg s.c.", "value": "Statistically significant increases"}, {"measurement": "rotational behavior (cumulative rotation over 10 h)", "setting": "unilateral 6-OHDA rats [2]; acute 0.02, 0.2, 2 mg/kg s.c.", "value": "robust, dose-dependent rotational behavior"}, {"measurement": "rotation (cumulative over 10 h)", "setting": "unilateral 6-OHDA rats [2]; acute oral 0.02, 0.2, 2 mg/kg, response not dose-dependent", "value": "robust rotation"}, {"measurement": "rotation after challenge dose 0.2 mg/kg s.c. on day 14", "setting": "unilateral 6-OHDA rats [2]; after 0.6 mg/kg/day by minipump", "value": "no rotation"}, {"measurement": "rotation after challenge dose 0.2 mg/kg s.c. on day 14", "setting": "unilateral 6-OHDA rats [2]; after 6 mg/kg/day by minipump", "value": "no rotation"}, {"measurement": "difference between groups on dinapsoline-alone challenge", "setting": "unilateral 6-OHDA rats [2]; day 7, after 6 days dinapsoline with or without raclopride", "value": "no difference was observed"}, {"measurement": "rotation during continuous administration", "setting": "unilateral 6-OHDA rats [2]; highest dose (6 mg/kg/day)", "value": "brief behavioral response to which complete tolerance developed by 24 h"}, {"measurement": "rotation during continuous administration", "setting": "unilateral 6-OHDA rats [2]; lower doses (0.006, 0.06, 0.6 mg/kg/day)", "value": "no evidence of rotation"}, {"measurement": "D2 agonist properties", "setting": "D2 receptors", "value": "some D2 agonist properties"}, {"measurement": "efficacy in Parkinson's disease models", "setting": "unilateral 6-OHDA rats [3]", "value": "efficacious"}]}, {"compound": "Oc1cc2c(cc1O)C(c1ccccc1)CNCC2", "note": "(single isomer, unassigned; (+)) [(+)-SKF-38393, reference compound]", "values": [{"measurement": "agonist activity (intrinsic activity)", "setting": "[5]", "value": "partial agonist"}]}, {"compound": "Br.Oc1ccc2c(c1O)Oc1cccc3c1C2CNC3", "note": "(racemic) [dinoxyline, (±)-8,9-dihydroxy-1,2,3,11b-tetrahydrochromeno[4,3,2-de]isoquinoline hydrobromide]", "values": [{"measurement": "affinity for dopamine D1 receptors labeled with [3H]SCH23390", "setting": "[6]; compared with dihydrexidine", "value": "high affinity"}, {"measurement": "nH of competition curve", "setting": "[6]; competition with SCH23390", "value": "ca. 0.7"}, {"measurement": "Ki", "setting": "[6]; rat striatal D1 receptors, read-out: K0.5 (affinity)", "value": "< 0.005", "unit": "µM"}, {"measurement": "agonist activity (intrinsic activity)", "setting": "D1 receptors; hydrobromide", "value": "full agonist activity"}, {"measurement": "EC50", "setting": "D1 receptors; rat striatum, read-out: EC50 in stimulating synthesis of cAMP via D1 receptors", "value": "< 0.03", "unit": "µM"}, {"measurement": "agonist activity (intrinsic activity)", "setting": "[5]; hydrobromide", "value": "full agonist activity"}, {"measurement": "EC50", "setting": "[5]; C-6-mD1 cells, read-out: EC50 in stimulating synthesis of cAMP via D1 receptors", "value": "< 0.03", "unit": "µM"}, {"measurement": "D1:D2 selectivity", "setting": "[1]", "value": "equally high affinity for both types of receptors"}, {"measurement": "D2 agonist properties", "setting": "D2 receptors", "value": "some D2 agonist properties"}, {"measurement": "efficacy in Parkinson's disease models", "setting": "unilateral 6-OHDA rats [3]", "value": "efficacious"}]}, {"compound": "CN1CCc2cc(Cl)c(O)cc2[C@@H](c2ccccc2)C1", "note": "[SCH-23390, reference compound]", "values": [{"measurement": "duration of action", "setting": "unilateral 6-OHDA rats [2]; in our assay", "value": "approximately 3 h"}]}]}
